Source: patent US9243221B2, “Compositions and methods of functionally enhanced in vitro cell culture system” (HUREL CORPORATION, priority 2008, dated 2016)
Like-named read-outs stand apart in the source and are kept apart here.

Key:
[1] = system: Cryopreserved human hepatocytes
Procedure: Cryopreserved human hepatocytes are cultured with 3T3-J2 fibroblasts under serum free conditions. Following overnight incubation in high oxygen tension (95% O2, 5% CO2) the cells are exposed to one of the following drugs: antipyrine, buspirone, metoprolol, sildenafil, and timolol.

[2] = system: Cryopreserved human hepatocytes; assay: Long term accumulation of 4-OH midazolam in culture media of oxygenated hepatocyte co-cultures; assay type: in vitro ADME; conditions: in the presence and absence of rifampicin; FIG. 5B

| Compound | clearance of drugs ([1]; human) | other results |
| --- | --- | --- |
| CC(C)(C)NC[C@H](O)COc1nsnc1N1CCOCC1 [timolol] | slow clearing | – |
| Cc1cc(=O)n(-c2ccccc2)n1C [antipyrine] | – | clearance of drugs ([1]; cryopreserved human hepatocytes with 3T3-J2 fibroblasts, serum free, overnight 95% O2, 5% CO2, FIG. 5A): slow clearing |
| Cc1ncc2n1-c1ccc(Cl)cc1C(c1ccccc1F)=NC2O (stereo not shown) [4-OH midazolam] | – | accumulation of 4-OH midazolam in the culture media [2]: can be detected over 30 hours of culture |
| CCCc1nn(C)c2c(=O)[nH]c(-c3cc(S(=O)(=O)N4CCN(C)CC4)ccc3OCC)nc12 [sildenofil, sildenafil] | slow clearing | – |
